In patent US20240423208A1, “AGRICULTURAL COMPOSITION AND METHOD FOR CULTIVATING PLANTS USING SAME” (KANEKA CORPORATION, priority 2022, published 2024):

Key:
[1] = tested on: Lettuce (the cultivar: Souther); test: Experiment 1: lettuce growth, total dry weight after bottom watering; assay type: in vivo; details: compositions with 15 mass % GSSG, 10 mass % ALN, 5 mass % ferrous material, 15 mass % seaweed extract; diluted 1000-fold, bottom watering 3 and 4 weeks after seeding
Procedure: Lettuce (the cultivar: Souther) was raised in a plant incubator. Three weeks after the seeding and four weeks after the seeding, a composition comprising 15 mass % oxidized glutathione (GSSG), 10 mass % allantoin (ALN), 5 mass % ferrous material, or 15 mass % seaweed extract, or a composition comprising a combination of 15 mass % GSSG and any of 10 mass % ALN, 5 mass % ferrous material, or 15 mass % seaweed extract was applied to the lettuce. Each composition was diluted 1000-fold, and each resulting solution was applied by bottom watering.
Four weeks after the seeding, the seedling was transplanted into a pot, grown in a glass greenhouse for two weeks, and then, evaluated (repeated 9 times).
Assuming that the value of the total dry weight of the lettuce to which water alone was applied was 100, the total dry weight of the lettuce to which each composition was applied was expressed.

[2] = tested on: Lettuce (the cultivar: Souther); test: Experiment 2: lettuce growth under high-temperature stress, total dry weight; assay type: in vivo; details: diluted 1000-fold, bottom watering, 40° C. for two hours
Procedure: Lettuce (the cultivar: Souther) was raised in a plant incubator. Three weeks after the seeding and four weeks after the seeding, a fertilizer composition comprising 5 mass % GSSG, 10 mass % ALN, or 20 mass % ALN, a fertilizer composition comprising neither GSSG nor ALN, or a fertilizer composition comprising a combination of 5 mass % GSSG and each concentration of ALN was applied. Each fertilizer composition was diluted 1000-fold, and the resulting solution was applied by bottom watering.
Four weeks after the seeding, the seedling was transplanted into a pot, subjected to high-temperature stress at 40° C. for two hours in a plant incubator, and grown for one week. Then, the seedling was transferred into a glass greenhouse, grown for one week, and then, evaluated (repeated 9 times).
Assuming that the value of the total dry weight of the lettuce to which the fertilizer composition comprising neither GSSG nor ALN was applied alone was 100, the total dry weight of the lettuce to which each composition was applied was expressed.

[3] = tested on: grape VR cell; test: Experiment 9: cumulative amount of anthocyanin in cultured grape VR cell; assay type: cell-based; details: GSSG 0.1%, ALN 0.4%; 10 μL at start and 100 μL on 3rd day; measured on 11th day of culture
Procedure: A grape VR cell was cultured in an LS agar culture medium, and the cumulative amount of anthocyanin was measured. The solution for each treatment section as shown in Table 4 was delivered into the cell cluster by drops in an amount of 10 μL at the beginning of the culture, and in an amount of 100 μL on the 3rd day of culture. The amount of anthocyanin was measured on the 11th day of culture. The culture was performed at 27° C. under light irradiation.

[4] = tested on: lettuce (the cultivar: Lollo Rosso or Red Oak); test: Experiment 10: visual evaluation of lettuce coloration after leaf spraying; assay type: in vivo; design: key: The same degree of coloration as T1 was rated CC; slightly more coloration than T1 was rated BB; much more coloration than T1 was rated AA; details: GSSG 0.125%, ALN 0.5%; sprayed on leaves approximately 1 g/head; one week after spraying; compared with T1
Procedure: Culture soil was put in a 9 cm plastic pot, and seeded with lettuce (the cultivar: Lollo Rosso or Red Oak). After the seeding, the lettuce was grown in an environmentally controlled greenhouse set at 28° C. during the daytime and at 18° C. during the nighttime. Three weeks after the seeding, each test solution shown in Table 5 was sprayed on the leaves at approximately 1 g/head. One week after the spraying, the appearance of the lettuce was visually observed, and the degree of coloration was evaluated. The evaluation was based on a comparison with T1 (the control). The same degree of coloration as T1 was rated CC, slightly more coloration than T1 was rated BB, and much more coloration than T1 was rated AA.

Row | Molecule | total dry weight of the lettuce (water alone = 100) [1] | total dry weight of the lettuce (fertilizer composition with neither GSSG nor ALN = 100) ([2]; ALN 10%, GSSG 0% or 5%) | total dry weight of the lettuce (fertilizer composition with neither GSSG nor ALN = 100) ([2]; ALN 20%, GSSG 0% or 5%) | cumulative amount of anthocyanin [3] | degree of coloration, Lollo Rosso [4] | degree of coloration, Red Oak [4] | total dry weight of the lettuce (fertilizer composition with neither GSSG nor ALN = 100) ([2]; ALN 0%, GSSG 5 mass %)
1 | NC(=O)NC1NC(=O)NC1=O (stereo not drawn) [ALN, 5-ureidohydantoin] | 123 | 104 | 115 | neither GSSG alone nor ALN alone affected | BB | BB | –
2 | [Fe+2] [Ferrous iron] | 98 | – | – | – | – | – | –
3 | oxidized glutathione [GSSG] | 113 | – | – | neither GSSG alone nor ALN alone affected | CC | BB | 108
